The results in this text go back to patent publication US8324179B2, “Nucleoside analogs for antiviral treatment” (Gilead Sciences, Inc., priority 2007, dated 2012).

In one test the target is T1, HCV Δ21 NS5b polymerase (Hepatitis C virus genotype 1b, UniProt P26663).
T1 construct: 75 nM HCV Δ21 NS5b polymerase
T1 sequence (P26663 2420-2989, stated change not applied): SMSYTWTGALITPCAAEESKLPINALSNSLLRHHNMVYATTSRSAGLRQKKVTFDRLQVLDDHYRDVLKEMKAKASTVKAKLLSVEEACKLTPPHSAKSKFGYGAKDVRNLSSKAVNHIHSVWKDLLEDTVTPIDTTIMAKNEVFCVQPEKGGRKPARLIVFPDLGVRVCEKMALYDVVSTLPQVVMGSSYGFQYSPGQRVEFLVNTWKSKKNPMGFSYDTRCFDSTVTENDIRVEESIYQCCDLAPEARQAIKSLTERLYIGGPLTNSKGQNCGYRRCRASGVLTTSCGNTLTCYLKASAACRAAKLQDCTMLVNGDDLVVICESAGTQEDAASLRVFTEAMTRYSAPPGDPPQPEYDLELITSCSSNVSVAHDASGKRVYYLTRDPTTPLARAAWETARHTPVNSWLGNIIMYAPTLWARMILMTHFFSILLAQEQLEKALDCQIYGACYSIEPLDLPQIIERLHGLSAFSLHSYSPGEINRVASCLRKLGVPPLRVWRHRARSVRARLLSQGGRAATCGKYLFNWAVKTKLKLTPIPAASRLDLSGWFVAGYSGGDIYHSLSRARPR
Kind of test: NS5b polymerase assay (HCV IC50 determination). In kind it is biochemical.
Conditions: not given
Here is the method: Assay Protocol: NS5b polymerase assay (40 μL) was assembled by adding 28 μL polymerase mixture (final concentration: 50 mM Tris-HCl at pH 7.5, 10 mM KCL, 5 mM MgCl2, 1 mM DTT, 10 mM EDTA, 4 ng/μL of RNA template, and 75 nM HCV Δ21 NS5b polymerase) to assay plates followed by 4 μL of compound dilution. The polymerase and compound were pre-incubated at 35° C. for 10 minute before the addition of 8 μL of nucleotide substrate mixture (33P-α-labeled competing nucleotide at KM and 0.5 mM of the remaining three nucleotides). The assay plates were covered and incubated at 35° C. for 90 min. Reactions were then filtered through 96-well DEAE-81 filter plates via vacuum. The filter plates were then washed under vacuum with multiple volumes of 0.125 M NaHPO4, water, and ethanol to remove unincorporated label. Plates were then counted on TopCount to assess the level of product synthesis over background controls. The IC50 value was determined using Prism fitting program.
In turn, `CN(NS(C)(=O)=O)c1ncnc2c1ncn2[C@@H]1O[C@H](/C=C/P(=O)(O)OP(=O)(O)OP(=O)(O)O)C[C@H]1O` [Compound 60.5] displayed an IC50 above 100 µM.

The compound `Nc1nc(N)c2nnn(C3OC(C=CP(=O)(O)OP(=O)(O)OP(=O)(O)O)CC3O)c2n1` (stereo not shown) [Compound 53.4] had an IC50 above 100 µM.

`Nc1nc2c(nnn2[C@@H]2O[C@H](/C=C/P(=O)(O)OP(=O)(O)OP(=O)(O)O)C[C@H]2O)c(=O)[nH]1` [Compound 10.4] showed a 50% inhibitory concentration (IC50) above 100 µM.

With `Nc1nc2c(ncn2[C@@H]2O[C@H](/C=C/P(=O)(O)OP(=O)(O)OP(=O)(O)O)C[C@H]2O)c(=O)[nH]1` [Compound 9.12], the IC50 was above 100 µM.

For the compound `O=C1C=Cc2nn([C@@H]3O[C@H](/C=C/P(=O)(O)OP(=O)(O)OP(=O)(O)O)C[C@H]3O)c3ncnc(c23)N1` [Compound 52.6], the IC50 was below 10 µM.

`Nc1ncnc2c1nnn2[C@@H]1O[C@H](/C=C/P(=O)(O)OP(=O)(O)OP(=O)(O)O)[C@@H](O)[C@H]1O` [Compound 6.8] showed a concentration for half-maximal inhibition (IC50) above 100 µM.

`O=c1ccn([C@@H]2O[C@H](/C=C/P(=O)(O)OP(=O)(O)OP(=O)(O)O)[C@@H](O)[C@H]2F)c(=O)[nH]1` [Compound 58.7] gave an IC50 of 10 to 100 µM.

Turning to `Nc1ncnc2c1ncn2[C@@H]1O[C@H](/C=C/P(=O)(O)OP(=O)(O)OP(=O)(O)O)[C@@H](O)[C@@H]1F` [Compound 56.5], the IC50 was above 100 µM.

For `NC(=O)c1ncn([C@@H]2O[C@H](/C=C/P(=O)(O)OP(=O)(O)OP(=O)(O)O)C[C@H]2O)n1` [Compound 54.4], the half-inhibitory concentration (IC50) was above 100 µM.

In the case of `Nc1ncnc2c1ncn2[C@@H]1O[C@H](/C=C/P(=O)(O)OP(=O)(O)OP(=O)(O)O)[C@@H](O)[C@H]1F` [Compound 55.7], the IC50 is below 10 µM.

As to `Nc1ncnc2c1nnn2C1OC(C=CP(=O)(O)OP(=O)(O)OP(=O)(O)O)CC1O` (stereo not shown) [Compound 38.4], the IC50 is 10 to 100 µM.

Compound `COC1C(O)C(C=CP(=O)(O)OP(=O)(O)OP(=O)(O)O)OC1n1cnc2c(=O)[nH]c(N)nc21` (stereo not shown) [Compound 16.95] registered an IC50 of 10 to 100 µM.

Another test concerns Replicon cells. Kind of test: HCV EC50 determination, replicon luciferase assay. In kind it is cell-based. The note with it: 3 days, luciferase activity, read-out: Replicon inhibiting potency EC50. The method, then: Replicon cells were seeded in 96-well plates at a density of 8×10^3 cells per well in 100 μL of culture medium, excluding Geneticin. Compound was serially diluted in 100% DMSO and then added to the cells at a 1:200 dilution, achieving a final concentration of 0.5% DMSO and a total volume of 200 μL. Plates were incubated at 37° C. for 3 days, after which culture medium was removed and cells were lysed in lysis buffer provided by Promega's luciferase assay system. Following the manufacturer's instruction, 100 μL of luciferase substrate was added to the lysed cells and luciferase activity was measured in a TopCount luminometer.
Regarding `Nc1ncnc2c1cnn2[C@@H]1O[C@H](/C=C/P(=O)(O)O)[C@@H](O)[C@H]1O` [Compound 25.3, (E)-2-((2R,3S,4R,5R)-5-(4-amino-1H-pyrazolo[3,4-d]pyrimidin-1-yl)-3.4-dihydroxy-tetrahydrofuran-2-yl)vinylphosphonic acid], the EC50 was above 100 µM.

On to `CCCCOC(=O)[C@H](C)NP(=O)(/C=C/[C@H]1O[C@@H](n2cnc3c(N)ncnc32)[C@@H](F)[C@@H]1O)N[C@@H](C)C(=O)OCCCC` [Compound 56.6], for which the EC50 was below 10 µM.

In the case of “{2-[5-(4-Amino-2-oxo-2H-pyridin-1-yl)-4-hydroxy-tetrahydro-furan-2-yl]-vinyl}-phosphonic acid [Compound 11.2]”, the half-maximal effective concentration (EC50) was above 100 µM.

With `CCCCOC(=O)[C@H](C)NP(=O)(/C=C/[C@@H]1C[C@@H](O)[C@H](n2cnc3c(=O)[nH]c(N)nc32)O1)N[C@@H](C)C(=O)OCCCC` [Compound 9.11], the half-maximal effective concentration (EC50) was below 10 µM.

Still in this test, the particulars now being: Hepatitis C virus, 72 h, 3 days, luciferase activity, read-out: Replicon inhibiting potency EC50.
Regarding `CNc1ncnc2c1ncn2C1OC(C=CP(=O)(O)O)CC1O` (stereo not shown) [Compound 47.2, {2-[4-Hydroxy-5-(6-methylamino-purin-9-yl)-tetrahydro-furan-2-yl]-vinyl}-phosphonic acid], the EC50 was above 100 µM.

With `COC1C(O)C(C=CP(=O)(O)O)OC1n1ccc(N)nc1=O` (stereo not shown) [Compound 17.5, {2-[5-(4-Amino-2-oxo-2H-pyrimidin-1-yl)-3-hydroxy-4-methoxy-tetrahydro-furan-2-yl]-vinyl}-phosphonic acid], the EC50 was above 100 µM.

As for `COC1C(O)C(C=CP(=O)(O)O)OC1n1cnc2c(=O)[nH]c(N)nc21` (stereo not shown) [Compound 16.9, {2-[5-(2-Amino-6-oxo-1,6-dihydro-purin-9-yl)-3-hydroxy-4-methoxy-tetrahydro-furan-2-yl]-vinyl}-phosphonic acid], the EC50 is above 100 µM.

On to `CCCCOC(=O)[C@H](C)NP(=O)(/C=C/[C@@]1(N=[N+]=[N-])O[C@@H](n2ccc(=O)[nH]c2=O)[C@H](O)[C@@H]1O)N[C@@H](C)C(=O)OCCCC` [Compound 48.7], for which the EC50 fell in the range of 10 to 100 µM.

Turning to `CNc1nc(N)nc2c1ncn2C1OC(C=CP(=O)(O)O)CC1O` (stereo not shown) [Compound 46.3, {2-[5-(2-Amino-6-methylamino-purin-9-yl)-4-hydroxy-tetrahydro-furan-2-yl]-vinyl}-phosphonic acid], the EC50 is above 100 µM.

On to `Nc1ncnc2c1ncn2C1OC(C=CP(=O)(O)O)CC1O` (stereo not shown) [Compound 12.2, {2-[5-(6-Amino-purin-9-yl)-4-hydroxy-tetrahydro-furan-2-yl]-vinyl}-phosphonic acid], for which the EC50 was below 10 µM.

For `CCCCOC(=O)[C@H](C)NP(=O)(/C=C/[C@@H]1C[C@@H](O)[C@H](n2cnc(C(N)=O)n2)O1)N[C@@H](C)C(=O)OCCCC` [Compound 54.3], the concentration for a half-maximal effect (EC50) is above 100 µM.

`O=c1ccn([C@@H]2O[C@H](/C=C/P(=O)(O)O)C[C@H]2O)c(=O)[nH]1` [Compound 50.6]: the concentration for a half-maximal effect (EC50) was above 100 µM.

`Nc1nc(N)c2ncn(C3OC(C=CP(=O)(O)O)CC3O)c2n1` (stereo not shown) [Compound 13.2, {2-[5-(2,6-Diamino-purin-9-yl)-4-hydroxy-tetrahydro-furan-2-yl]-vinyl}-phosphonic acid]: the half-maximal effective concentration (EC50) was above 100 µM.

`Nc1ncnc2c1nnn2C1OC(CCP(=O)(O)O)C(O)C1O` (stereo not shown) [Compound 6.7, {2-[5-(7-Amino-[1,2,3]triazolo[4,5-d]pyrimidin-3-yl)-3,4-dihydroxy-tetrahydro-furan-2-yl]-ethyl}-phosphonic acid]: the EC50 was above 100 µM.

For `CCCCOC(=O)[C@H](C)NP(=O)(/C=C/[C@@H]1C[C@@H](O)[C@H](n2nnc3c(=O)[nH]c(N)nc32)O1)N[C@@H](C)C(=O)OCCCC` [Compound 10.3], the EC50 is above 100 µM.

In the case of `Nc1ncnc2c1ncn2[C@@H]1O[C@H](/C=C/P(=O)(O)O)[C@@H](O)[C@H]1O` [Compound 24.4, (E)-2-((2R,3S,4R,5R)-5-(6-amino-9H-purin-9-yl)-3,4-dihydroxy-tetrahydrofuran-2-yl)vinylphosphonic acid], the 50% effective concentration (EC50) was above 100 µM.

Consider `Nc1nc2c(ncn2C2OC(C=CP(=O)(O)O)C(O)C2O)c(=O)[nH]1` (stereo not shown) [Compound 18.8, {2-[5-(2-Amino-6-oxo-1,6-dihydro-purin-9-yl)-3,4-dihydroxy-tetrahydro-furan-2-yl]-vinyl}-phosphonic acid], for which the EC50 lay in the range of 10 to 100 µM.

For the compound `Nc1nc2c(nnn2C2OC(C=CP(=O)(O)O)CC2O)c(=O)[nH]1` (stereo not shown) [Compound 10.2, {2-[5-(5-Amino-7-oxo-6,7-dihydro-[1,2,3]triazolo[4,5-d]pyrimidin-3-yl)-4-hydroxy-tetrahydro-furan-2-yl]-vinyl}-phosphonic acid], the EC50 lay in the range of 10 to 100 µM.

On to `Nc1ncnc2c1nnn2[C@@H]1O[C@H](/C=C/P(=O)(O)O)C[C@H]1O` [Compound 38.2, (E)-2-((2S,4R,5R)-5-(7-amino-3H-[1,2,3]triazolo[4,5-d]pyrimidin-3-yl)-4-hydroxy-tetrahydrofuran-2-yl)vinylphosphonic acid], for which the EC50 is above 100 µM.

On to `CCCCOC(=O)[C@H](C)NP(=O)(/C=C/[C@H]1O[C@@H](n2cnc3c(N)ncnc32)[C@H](F)[C@@H]1O)N[C@@H](C)C(=O)OCCCC` [Compound 55.8], for which the half-maximal effective concentration (EC50) lay in the range of 10 to 100 µM.

On to `CC(=O)Nc1nc2c(ncn2C2OC(C=CP(=O)(O)O)CC2OC(=O)c2ccccc2)c(=O)[nH]1` (stereo not shown) [Compound 9.10, Benzoic acid 2-(2-acetylamino-6-oxo-1,6-dihydro-purin-9-yl)-5-(2-phosphono-vinyl)-tetrahydro-furan-3-yl ester], for which the concentration for a half-maximal effect (EC50) is 10 to 100 µM.

As for `C[C@@]1(O)[C@H](O)[C@@H](/C=C/P(=O)(O)O)O[C@H]1n1nnc2c(N)ncnc21` [Compound 27.8, (E)-2-((2R,3R,4R,5R)-5-(7-amino-3H-[1,2,3]triazolo[4,5-d]pyrimidin-3-yl)-3,4-dihydroxy-4-methyl-tetrahydrofuran-2-yl)vinylphosphonic acid], the EC50 was above 100 µM.
